pIC50, pKi: −log10 of the molar value.
What was measured:
[1] = target: T1, 5-hydroxytryptamine receptor 1A (Rattus norvegicus, UniProt P19327); assay: Displacement of [3H]8-OH-DPAT from 5-hydroxytryptamine 1A receptor of rat hippocampus mambranes; format: tissue-based
T1 sequence (P19327 whole entry): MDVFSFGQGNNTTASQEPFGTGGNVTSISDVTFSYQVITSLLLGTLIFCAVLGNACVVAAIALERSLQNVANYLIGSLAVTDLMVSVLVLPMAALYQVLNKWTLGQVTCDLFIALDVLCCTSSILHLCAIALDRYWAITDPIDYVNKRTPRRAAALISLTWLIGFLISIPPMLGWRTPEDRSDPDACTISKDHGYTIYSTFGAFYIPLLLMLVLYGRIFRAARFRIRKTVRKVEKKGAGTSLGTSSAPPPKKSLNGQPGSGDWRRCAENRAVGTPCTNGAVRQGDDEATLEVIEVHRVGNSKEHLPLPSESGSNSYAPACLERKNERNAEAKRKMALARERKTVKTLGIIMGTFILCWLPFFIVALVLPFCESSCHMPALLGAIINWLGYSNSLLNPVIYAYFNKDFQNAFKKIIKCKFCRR

[2] = target: T2, 5-hydroxytryptamine receptor 2A (Rattus norvegicus, UniProt P14842); assay: Binding affinity against 5-hydroxytryptamine 2A receptor by displacement of [3H]ketanserin from rat prefrontal cerebral cortex mambranes; format: tissue-based, Frontal cortex
T2 sequence (P14842 whole entry): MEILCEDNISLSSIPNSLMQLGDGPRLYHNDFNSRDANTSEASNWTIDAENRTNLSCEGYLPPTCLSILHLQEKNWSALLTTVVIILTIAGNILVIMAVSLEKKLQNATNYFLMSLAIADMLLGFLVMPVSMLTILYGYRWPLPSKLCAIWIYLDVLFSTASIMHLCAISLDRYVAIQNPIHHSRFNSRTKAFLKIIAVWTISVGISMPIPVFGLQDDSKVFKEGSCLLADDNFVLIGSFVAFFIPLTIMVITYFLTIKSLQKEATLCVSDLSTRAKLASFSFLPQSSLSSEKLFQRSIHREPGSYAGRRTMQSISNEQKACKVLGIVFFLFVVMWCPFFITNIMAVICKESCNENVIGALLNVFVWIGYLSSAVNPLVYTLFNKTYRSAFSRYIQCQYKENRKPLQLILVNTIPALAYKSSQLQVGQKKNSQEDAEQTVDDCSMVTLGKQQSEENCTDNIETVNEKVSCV

[3] = target: T3, Sodium-dependent serotonin transporter (Rattus norvegicus, UniProt P31652); assay: Binding affinity against serotonin transporter (SERT) by displacement of [3H]paroxetine in male wistar rats
T3 sequence (P31652 whole entry): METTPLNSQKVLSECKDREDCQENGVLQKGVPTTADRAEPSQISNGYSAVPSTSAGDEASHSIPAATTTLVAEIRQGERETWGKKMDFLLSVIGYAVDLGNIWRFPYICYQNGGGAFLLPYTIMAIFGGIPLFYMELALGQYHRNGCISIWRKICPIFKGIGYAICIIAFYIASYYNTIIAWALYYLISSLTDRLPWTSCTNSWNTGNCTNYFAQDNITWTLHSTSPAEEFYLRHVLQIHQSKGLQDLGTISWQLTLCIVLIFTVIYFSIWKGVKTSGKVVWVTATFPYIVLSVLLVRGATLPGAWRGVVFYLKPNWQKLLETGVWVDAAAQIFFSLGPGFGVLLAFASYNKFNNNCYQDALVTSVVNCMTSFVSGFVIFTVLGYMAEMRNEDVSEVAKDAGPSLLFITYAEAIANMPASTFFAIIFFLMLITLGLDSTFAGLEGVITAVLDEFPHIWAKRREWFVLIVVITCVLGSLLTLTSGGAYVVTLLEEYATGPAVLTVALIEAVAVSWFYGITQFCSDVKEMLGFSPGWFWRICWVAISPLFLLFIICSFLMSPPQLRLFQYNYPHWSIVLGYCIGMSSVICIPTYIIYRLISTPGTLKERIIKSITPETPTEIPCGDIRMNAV

[4] = target: T3, Sodium-dependent serotonin transporter; assay: Binding affinity against serotonin transporter (SERT) by displacement of [3H]paroxetine in male wistar rat
[5] = target: Norepinephrine transporter (Rattus norvegicus, UniProt Q9WTR4); assay: Binding affinity against norepinephrine transporter (NET) by displacement of [3H]nisoxetine in male wistar rats
Norepinephrine transporter, sequence (Q9WTR4 whole entry): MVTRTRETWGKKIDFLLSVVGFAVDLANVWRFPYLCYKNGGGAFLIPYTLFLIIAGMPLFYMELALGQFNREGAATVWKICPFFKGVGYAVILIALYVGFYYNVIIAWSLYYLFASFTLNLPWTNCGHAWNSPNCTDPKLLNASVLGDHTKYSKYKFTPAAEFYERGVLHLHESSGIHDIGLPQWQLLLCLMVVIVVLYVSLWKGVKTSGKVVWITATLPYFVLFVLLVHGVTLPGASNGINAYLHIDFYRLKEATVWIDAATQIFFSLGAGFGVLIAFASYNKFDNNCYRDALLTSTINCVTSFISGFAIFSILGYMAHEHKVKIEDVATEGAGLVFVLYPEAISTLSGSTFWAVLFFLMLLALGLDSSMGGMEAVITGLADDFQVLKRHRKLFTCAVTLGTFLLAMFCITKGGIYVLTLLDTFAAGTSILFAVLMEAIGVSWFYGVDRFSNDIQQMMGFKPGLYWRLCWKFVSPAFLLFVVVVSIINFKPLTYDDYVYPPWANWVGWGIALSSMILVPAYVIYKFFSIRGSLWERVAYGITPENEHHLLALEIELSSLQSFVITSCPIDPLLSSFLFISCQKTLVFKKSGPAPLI

[6] = target: T1, 5-hydroxytryptamine receptor 1A; assay: Binding affinity against 5-hydroxytryptamine 1A receptor (5-HT1A) by displacement of [3H]8-OH-DPAT from rat hippocampus membranes; format: cell membranes, Membrane
[7] = target: T3, Sodium-dependent serotonin transporter; assay: Binding affinity to the serotonin transporter (SERT) measured by displacement of [3H]paroxetine in male wistar rats
[8] = target: T2, 5-hydroxytryptamine receptor 2A; assay: Binding affinity against 5-hydroxytryptamine 2A receptor by displacement of [3H]-ketanserin from rat prefrontal cerebral cortex mambranes; format: tissue-based, Frontal cortex
[9] = target: Sodium-dependent dopamine transporter (Rattus norvegicus, UniProt P23977); assay: Binding affinity against dopamine transporter (DAT) by displacement of [3H]WIN-35428 in male wistar rats
Sodium-dependent dopamine transporter, sequence (P23977 whole entry): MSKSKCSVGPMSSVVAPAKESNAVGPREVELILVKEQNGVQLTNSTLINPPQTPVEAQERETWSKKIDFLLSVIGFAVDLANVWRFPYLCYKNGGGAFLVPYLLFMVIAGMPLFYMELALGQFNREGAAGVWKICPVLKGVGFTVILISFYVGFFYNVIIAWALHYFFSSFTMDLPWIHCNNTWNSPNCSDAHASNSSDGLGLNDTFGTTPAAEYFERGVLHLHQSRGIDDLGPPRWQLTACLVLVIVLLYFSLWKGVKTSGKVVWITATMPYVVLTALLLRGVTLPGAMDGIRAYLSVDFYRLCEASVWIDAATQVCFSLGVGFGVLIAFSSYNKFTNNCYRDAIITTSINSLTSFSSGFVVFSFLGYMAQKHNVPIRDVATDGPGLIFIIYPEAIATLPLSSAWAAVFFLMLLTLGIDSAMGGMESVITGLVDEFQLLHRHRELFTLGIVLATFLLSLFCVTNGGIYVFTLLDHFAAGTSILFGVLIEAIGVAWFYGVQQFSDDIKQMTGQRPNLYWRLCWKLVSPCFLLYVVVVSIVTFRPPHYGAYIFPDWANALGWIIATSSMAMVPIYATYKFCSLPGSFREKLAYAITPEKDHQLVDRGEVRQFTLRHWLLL

| SMILES | pKi [1] | pKi [2] | pIC50 [3] | pIC50 [4] | pKi [5] | pIC50 [6] | pKi [7] | pIC50 [8] | pKi [9] | pIC50 [9] | pIC50 [5] |
| --- | --- | --- | --- | --- | --- | --- | --- | --- | --- | --- | --- |
| FC(F)(F)c1ccccc1OC(CCN1CCN(c2nsc3ccccc23)CC1)c1ccccc1 (configuration not stated) | 6.35 | 7.62 | < 6.00 |  |  |  |  |  |  |  |  |
| FC(F)(F)c1ccc(OC(CCN2CCN(c3nsc4ccccc34)CC2)c2ccccc2)cc1 (configuration not stated) | 7.47 | 7.40 | < 6.00 |  |  |  |  |  |  |  |  |
| Fc1ccccc1OC(CCN1CCN(c2nsc3ccccc23)CC1)c1ccccc1 (configuration not stated) | 7.15 | 8.28 |  | < 6.00 |  |  |  |  |  |  |  |
| O=[N+]([O-])c1ccc(OC(CCN2CCN(c3n[o+][c-]4ccccc34)CC2)c2ccccc2)cc1 (configuration not stated) | 6.59 | 7.27 | < 6.00 |  |  |  |  |  |  |  |  |
| COc1ccc(OC(CCN2CCN(c3noc4ccccc34)CC2)c2ccccc2)cc1 (configuration not stated) | 6.74 | 7.72 | < 6.00 |  |  |  |  |  |  |  |  |
| COc1ccc(OC(CCN2CCN(c3nsc4ccccc34)CC2)c2ccccc2)cc1 (configuration not stated) | 7.16 | 7.99 | < 6.00 |  |  |  |  |  |  |  |  |
| O=C(CCC(Oc1ccccc1F)c1ccccc1)C1CCN(c2ccc(F)cc2)CC1 (configuration not stated) | 7.42 | 8.10 | < 6.00 |  |  |  |  |  |  |  |  |
| Fc1ccccc1OC(CCN1CCN(c2noc3ccccc23)CC1)c1ccccc1 (configuration not stated) | 6.93 | 7.76 | < 6.00 |  |  |  |  |  |  |  |  |
| COc1ccc(OC(CCC(=O)C2CCN(c3ccc(F)cc3)CC2)c2ccccc2)cc1 (configuration not stated) | 7.03 | 7.27 | < 6.00 |  |  |  |  |  |  |  |  |
| Nc1ccc(OC(CCC(=O)C2CCN(c3ccc(F)cc3)CC2)c2ccccc2)cc1 (configuration not stated) | 6.97 | 7.79 | < 6.00 |  |  |  |  |  |  |  |  |
| Fc1ccccc1OC(c1ccccc1)C1CCNCC1 (single isomer, unassigned; (+)) |  |  |  |  | 7.38 | < 6.00 | 7.55 | < 6.00 | 6.28 |  |  |
| c1ccc(C(Oc2cccc3ccccc23)C2CCNCC2)cc1 (single isomer, unassigned; (+)) |  |  |  |  | 6.38 | < 6.00 | 7.70 | < 6.00 |  | < 6.00 |  |
| Brc1ccc(OC(c2ccccc2)C2CCNCC2)cc1 (single isomer, unassigned; (+)) |  |  |  |  |  | < 6.00 | 7.63 | < 6.00 |  | < 6.00 | < 6.00 |
| O=[N+]([O-])c1ccc(OC(c2ccccc2)C2CCNCC2)cc1 (single isomer, unassigned; (-)) |  |  |  |  |  | < 6.00 | 9.22 | < 6.00 |  | < 6.00 | < 6.30 |
| Fc1cccc(C(Oc2ccccc2F)C2CCNCC2)c1 (single isomer, unassigned; (-)) |  |  |  |  | 7.72 | < 6.00 | 8.37 | < 6.00 |  | < 6.30 |  |
| Brc1ccc(OC(c2ccccc2)C2CCNCC2)cc1 (single isomer, unassigned; (-)) |  |  |  |  |  | < 6.00 | 8.24 | < 6.00 |  | < 6.00 | < 6.30 |
| Fc1cccc(OC(c2ccccc2)C2CCNCC2)c1 (stereo in doubt; (+)-15j) |  |  |  |  | 7.01 | < 6.00 |  | < 6.00 | 6.79 |  |  |
| c1ccc(C(Oc2cccc3ccccc23)C2CCNCC2)cc1 (stereo in doubt; (-)-15au) |  |  |  |  |  | < 6.00 | 7.55 | < 6.00 |  | < 6.00 | < 6.00 |
| CCCN(CCC)C1CCc2cccc(O)c2C1 (configuration not stated) [8-OH-DPAT] |  |  | < 6.00 |  |  |  |  | < 6.00 |  | < 6.00 | < 6.00 |
| OC1(c2ccc(Cl)cc2)c2ccccc2C2=NCCN21 (configuration not stated) [MAZINDOL] |  |  |  |  | 9.10 | < 6.00 | 6.61 | < 6.00 | 7.35 |  |  |
| CN1CCN2c3ncccc3Cc3ccccc3C2C1 (configuration not stated) [MIRTAZAPINE] |  |  | < 6.00 |  |  | < 6.00 |  |  |  | < 6.00 | < 6.00 |
